Ends that are not written are not given here.
Legend:
[1] = system: middle cerebral artery (MCA) permanent occlusion stroke model; assay: Permanent MCA 24-hour occlusion stroke model; format: in vivo, Sprague-Dawley rats
Description: (§1) The in vivo neuroprotective effects of CMX-9236 were investigated in both temporary and permanent occlusion stroke models in Sprague-Dawley rats using an intraluminal suture of the middle cerebral artery (MCA) occlusion method (Zea Longa et al., Stroke, 20: 84 (1989)). Briefly, a 4-0 silicone-coated suture was inserted through the right common carotid artery to block the MCA orifice. In the temporary model, CMX-9236 (6.2 mg/kg/hr) or vehicle was administered via the femoral vein at 30 minutes after the start of a 2-hour occlusion for a 4-hour continuous infusion; the rats were then reperfused by withdrawing the suture at […] after the MCA occlusion. All experiments were performed in a blinded and randomized manner, and rectal temperature was maintained at 37° C. The animals were sacrificed, and their brains were removed, sectioned into six 2-mm-thick coronal slices and stained with 2,3,5-triphenyltetrazolium chloride solution (Bederson et al., Stroke, 17:1304 (1986)) to visualize the extent of brain damage for the calculation of the corrected hemispheric infarct volumes (Nagasawa and Kogure, Stroke, 20:1037 (1989); Li et al., J. Cereb. Blood Flow Metab., 17:1132 (1997)). […] This represents a significant reduction of infarct size (35±5%, p=0.01, student t-test) for the CMX-9236-treated group in the temporary occlusion model. There was also a 58+11% improvement in the neurological scoring (Minematsu et al., Neurology, 42:235 (1992)) for the peptide-treated group versus controls at the end of 24 hours.
In the permanent occlusion stroke model, the blood flow to the MCA territory was blocked for the total 24-hour period. A continuous i.v. infusion (0.5 ml/hr) of the CMX-9236 peptide (2.04 mg/kg/hr) or vehicle was initiated at 30 minutes after occlusion for 6 hours, followed by a bolus i.v. infusion of CMX-9236 (4.0 mg/kg in 0.5 ml delivered over 10 minutes) or vehicle at 12 hours after occlusion. The corrected infarct volumes were 127.5±18 mm^3 versus 216±18 mm^3 for drug-treated animals and controls, respectively. This represents a significant decrease (41±5%, p=0.003, student t-test) in infarct size for the drug-treated group as compared to the vehicle-treated control group (n=10 per group) in the permanent model, indicating a substantial rescue of brain tissue. These findings indicate that CMX-9236 has neuroprotective properties post-trauma in vivo, reducing the brain damage generated by cerebral ischemia.

[2] = system: superoxide dismutase (SOD) protein; assay: Western immunoblot of SOD protein in rat brain primary cortical cultures; format: cell-based; settings: Dose 6.7 pmol/ml, 5 hours at 37° C.
Description: Primary cortical cultures were obtained by growing newborn rat brain cortical cells in Delbecco's modified Eagle medium supplemented with 25 μg/ml of gentamycin and 10% fetal calf serum. The cells were isolated from the E-21 cortex of rat brain, plated at a density of 1×10^5 per ml and grown to confluence within four to five days in an atmosphere containing air and 5% CO2 at 37° C. as described in Cornell-Bell et al., Science, 247: 470-473 (1990) and Cell Calcium, 12: 185-204 (1991). Cultures were grown in 20 ml flasks as a monolayer and then exposed to various concentrations of peptides for studies of the effects of peptides on upregulation of genes for SOD and CAT and on the transmigration of transcription factor AP-1 to cell nuclei. […]
(§2) Tissue culture experiments were carried out using primary cultures of rat brain cortical cells as previously described above in Example 2. Primary cultures from embryonic rat brain isolated at E-21 (21 day embryos) and incubated for five hours with various doses: 1, 10, 100 ng/ml of CMX-99672. Cytoplasmic proteins were isolated and analyzed for upregulation of SOD and CAT by Western immunoblots as described above. […] The Western blot was scanned to quantify the fold-increase in SOD production in cell cultures treated with the CMX-99672 peptide compound.
Representative peptide compounds were tested at various doses and compared for their ability to upregulate expression of genes for SOD and/or CAT in rat primary cortical cultures basically as described above. Cultures were incubated with a peptide compound for 5 hours at 37° C. Cytoplasmic protein fractions were prepared as described above. Cytoplasmic proteins were separated by gel electrophoresis and analyzed by Western immunoblots using antisera to SOD and CAT, respectively (Rockland, Inc., Gilbertsville, Pa.). […]

[3] = system: middle cerebral artery (MCA) permanent occlusion stroke model; assay: Permanent MCA 24-hour occlusion stroke model; format: in vivo, Sprague-Dawley rats; settings: Dose 0.05 mg/hr
catalase (CAT) mRNA = assay: RT-PCR upregulation of catalase (CAT) mRNA in primary rat cortical cultures; format: cell-based; settings: 100 ng/ml
Description: Peptide compounds of the invention may also upregulate mRNA for catalase (CAT). Experiments using the RT-PCR methods to detect upregulation of CAT mRNA in primary rat cortical brain cultures treated with various representative peptide compounds, i.e., CMX-9236, CMX-9963, and CMX-9967. The catalase probe duplex consisted of a sense primer having the sequence […] (SEQ ID NO:31) and antisense primer having the sequence […] (SEQ ID NO:32) flanking a 95 bp region of the CAT DNA.
Primary rat brain cortical cell cultures were incubated with 100 ng/ml of the peptide compound CMX-9236 for 0, 0.5, 1, 2, 3, 6, 12, 24, and 48 hours. […] The upregulation of CAT mRNA was maximal at 3 hours after the addition of the peptide compound, and it decreased back to control levels at 48 hours. GAPDH was the internal standard in these experiments. […] A 13-fold increase in CAT mRNA levels was observed (over control) of CAT mRNA occurred when primary rat brain cortical cultures were incubated with 100 ng/ml of CMX-9236 for 3 hours.

[4] = system: middle cerebral artery (MCA) temporary occlusion stroke model; assay: Temporary MCA occlusion stroke model; format: in vivo, Sprague-Dawley rats
Description: as §1

catalase (CAT) protein = assay: Western immunoblot of CAT protein in rat primary cortical cultures; format: cell-based; settings: Dose 67 pmol/ml, 5 hours at 37° C.
Description: as §2
Representative peptide compounds were tested at various doses and compared for their ability to upregulate expression of genes for SOD and/or CAT in rat primary cortical cultures basically as described above. Cultures were incubated with a peptide compound for 5 hours at 37° C. Cytoplasmic protein fractions were prepared as described above. Cytoplasmic proteins were separated by gel electrophoresis and analyzed by Western immunoblots using antisera to SOD and CAT, respectively (Rockland, Inc., Gilbertsville, Pa.).

time at which CAT mRNA decreased back to control levels (catalase (CAT) mRNA): 48 h | time of maximal upregulation of CAT mRNA after addition (catalase (CAT) mRNA): 3 h | increase in CAT mRNA levels over control (catalase (CAT) mRNA; 3 hours): 13 fold
Sequence: KKDGDGDFAIDAPE [CMX-9236, uncapped peptide]
corrected infarct volume ([1]; 2.04 mg/kg/hr i.v. for 6 hours from 30 min, plus 4.0 mg/kg bolus at 12 hours, n=10): 127.5±18 mm^3 | decrease in infarct size vs vehicle ([1]; 2.04 mg/kg/hr infusion plus 4.0 mg/kg bolus, p=0.003): 41±5% | SOD [2]: 466 % Control | Percent Neurological Rescue [3]: 35 ± 8% | Percent Rescue (percent decrease in infarct size vs vehicle controls) [3]: 23 ± 7% | corrected infarct volume (mean±S.E.) ([4]; 6.2 mg/kg/hr i.v., 4-hour infusion from 30 min after start of occlusion, n=10): 117.3±17 mm^3 | reduction of infarct size vs vehicle ([4]; 6.2 mg/kg/hr, p=0.01): 35±5% | improvement in neurological scoring vs controls ([4]; at the end of 24 hours): 58+11% | CAT (catalase (CAT) protein): 652 % Control
